Patent US5888781A, “Method for increasing the hydrolytic activity of starch hyrdolases” (University of Maryland Baltimore County, priority 1997, dated 1999)

Legend:
[1] = biological target: T1, GA from A. awamori (Aspergillus awamori, UniProt P69327); assay: Effect of cosolvent solution viscosity on kcat of GA (maltose hydrolysis); format: biochemical; settings: maltose hydrolysis at 45° C.; for Effect of solution viscosity on kcat (in words): PEG200 viscosities up to 14 cp, PEG8000 up to 18 cp
T1 construct: made in house; host or cells: Saccharomyces cerevisiae
Description: (§1) Kinetic assays were performed either at 45° C. or at 60° C., in 0.05M sodium acetate buffer (pH 4.5), using a substrate, i.e., maltose, concentration of 20 mM. The substrate concentration was sufficiently above the Km value so that the measured rate was directly proportional to kcat.
(§2) The cosolvent solutions were prepared from a concentrated cosolvent mixture by dilution to the final concentrations ranging from 0-90% (w/v), into the appropriate reaction buffer solution. The buffer solutions were titrated for pH prior to addition of cosolvent. All of the solutions were equilibrated at 45° C. (or 60° C.) in a water bath, and the reaction was started by the addition of a 25 μl aliquot of enzyme. Reaction aliquots were removed at various times, and the reaction was stopped by the addition of 2.5M Trizma base (pH 7.0). All of the reactions were performed in duplicate. The rates were determined by measuring the concentration of the released glucose by the glucose oxidase method, using the Glucose Oxidase Kit (Sigma), as modified for microtiter plate assays, at OD450 nm (Fox et al, Anal. Biochem., 195:93-96 (1991); and Palcic et al, Carbohydr. Res., 250:87-92 (1993)), and using an EL 340 biokinetics reader (BIOTEK Instruments; Winooski, Vt.).
All buffers of various cosolvent concentrations were filtered before use. Viscosity and density measurements were performed using an Ostwald Capillary Viscometer at 45° C. The densities of the various buffer solutions were obtained by replicate weighing of one milliliter volumes of buffer.
As discussed above, if product release is the rate-limiting step in the GA mechanism, there should be a dependence of the kcat value on solution viscosity. If a conformational change associated with the product release is limiting the reaction rate, the relationship between kcat and viscosity, μ, should be μ^-δ (Demchenko et al, supra). This relationship is based on the Kramers' theory (Kramers, supra) which postulates that diffusional motion in a random field controls the rate at which the enzyme complex will pass over the activation energy barrier. […] This relationship is based on the theory that the dissociating product must have a certain minimal kinetic energy to escape some characteristic volume in the enzyme active site. Once the product has exited from the characteristic volume, the product has a very low probability of reassociating. If the former relationship is valid, plots of ln(kcat) vs ln(μ) for the various cosolvents should be linear with a slope of -δ, whereas if the latter is true plots of ln(kcat) vs (μ)^2 should be linear with a slope corresponding to -γ.

[2] = biological target: T1, GA from A. awamori; assay: GA activity assay: maltose hydrolysis in the presence of cosolvents; format: biochemical; settings: maltose hydrolysis by GA at 45° C.; for Corresponding cosolvent concentration at maximum percent increase in kcat: 0.05M sodium acetate buffer pH 4.5, 20 mM maltose; for kcat: at cosolvent concentration of maximum increase
Description: GA was produced in Saccharomyces cerevisiae and obtained, as described by Natarajan et al, Biochem., 35:3050-3058 (1996).
as §1, with “kcat. The enzyme concentrations used in the reaction mixtures were 35 μg/ml and 3.5 μg/ml for the 45° C. and 60° C. experiments, respectively.” for “kcat.”
as §2
Glucose standards at each of the various cosolvent concentrations were run parallel to each reaction so that any effect of the cosolvents on the glucose assay could be subtracted out.

T1 sequence (P69327 25-640): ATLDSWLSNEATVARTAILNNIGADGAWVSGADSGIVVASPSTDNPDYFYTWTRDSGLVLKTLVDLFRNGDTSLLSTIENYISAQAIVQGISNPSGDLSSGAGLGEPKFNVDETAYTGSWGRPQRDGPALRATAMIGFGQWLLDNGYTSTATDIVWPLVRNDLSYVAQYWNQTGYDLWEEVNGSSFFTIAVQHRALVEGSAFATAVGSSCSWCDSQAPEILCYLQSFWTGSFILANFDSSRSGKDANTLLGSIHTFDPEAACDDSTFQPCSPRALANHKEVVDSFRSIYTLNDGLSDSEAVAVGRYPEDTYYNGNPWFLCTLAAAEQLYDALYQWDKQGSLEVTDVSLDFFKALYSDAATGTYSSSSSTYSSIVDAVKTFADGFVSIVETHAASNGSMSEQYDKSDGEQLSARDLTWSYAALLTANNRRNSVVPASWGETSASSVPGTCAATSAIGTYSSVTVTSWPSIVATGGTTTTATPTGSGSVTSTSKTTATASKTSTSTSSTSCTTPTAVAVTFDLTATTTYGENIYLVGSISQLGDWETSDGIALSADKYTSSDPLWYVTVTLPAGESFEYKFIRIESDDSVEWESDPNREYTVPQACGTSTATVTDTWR

SMILES | Solution viscosity at which GA activity starts to decrease significantly [1] | Effect of solution viscosity on kcat (in words) [1] | Maximum percent increase in kcat over control value without cosolvent [2] [%] | Corresponding cosolvent concentration at maximum percent increase in kcat [2] [%] | Effect of cosolvent on kcat (in words) ([2]; FIGS. 1A-1G) | kcat [2] [s⁻¹] | Slope of plot of ln(kcat) vs (μ)^2 ([1]; FIGS. 4A-4G) | Cosolvent concentration of peak (largest) increase in kcat [2]
OCC(O)CO [Glycerol, glycerol, reference compound] | around 3.5 cp | substantially decreased kcat | 11 | 1.0 | only a minor increase in kcat | 10.4 |  | 
OCCO [EG, ethylene glycol] | around 3.5 cp | substantially decreased kcat | 32 | 50 |  | 12.4 | -0.06 | around 50 % (w/v)
